Experimental data from US20040126755A1, “Gene expression based method for distinguishing metastatic from non-metastatic forms of a tumor, and use in designing therapeutic drugs” (priority 2001, published 2004).

Legend:
Format in all cases: cell-based, human
[1] = system: MAPK1/3; experiment: Western blot, phospho-MAPK1/3 to total ratio in Daoy cell lysates
Protocol: (§1) Daoy cells were treated in a manner identical to that described above for migration. After described incubation with PDGFA, PDGFRA antibody, or MAP2K1/MAP2K2 inhibitor U0126, we prepared cell lysates by adding 500 ul lysis buffer (Cell Signaling Technology) to cell pellets on ice for 20 min, sonicating, and centrifuging at 10,000 RPM for 10 min. We collected the supernatants and mixed equal amounts of lysate protein (5.2 ug) in a 1:1 mixture with Tris-Glycine SDS sample buffer Covex). Samples were run on a 12% SDS-PAGE gel (BioRad) along with broad range protein markers (BioRad) at 125 V for 1 h. We transferred proteins to PVDF membrane (NEN Life Sciences) using a semi-dry transfer cell (BioRad). We first soaked the membrane in anhydrous methanol for 2 min, deionized water for 5 min, and transfer buffer (25 mM Tris, 0.2 M glycine, 20% methanol, pH 8.5) for 10 min. The gels were pre-soaked in transfer buffer for 15 min and subsequently electro-blotted to the membrane between filter paper soaked in transfer buffer for 45 min at a current equivalent to 2.5 × total gel area (cm^2). Following blotting, we incubated the membrane in blocking buffer (3% BSA in TBS-T) for 1 h at room temperature with gentle agitation. We subsequently incubated the membrane with primary antibody (MAP2K1/2 antibody, phospho-MAP2K1/2 (Ser217/221) antibody, MAPK1/3 (p42/p44 MAPK) antibody, or phospho-MAPK1/3 (Thr202/Tyr204) antibody; Cell Signaling Technology) diluted 1:1000 in blocking buffer overnight at 4° C. We washed the membranes in wash buffer (1% BSA in TBS-T) 3 times (1× for 10 min and 2× for 5 min) and incubated them with anti-rabbit HRP-conjugated secondary antibody (Cell Signaling Technology) diluted 1:2000 in blocking buffer for 1 h with gentle agitation at room temperature. We subsequently washed membranes with gentle agitation 5 times with 1%BSA in TBS-T (1× for 10 min in, 4× for 5 min) and once in TBS-T for 5 min. […] We scanned the developed films, and determined the optical density of each lane using NIH Image (available at http://rsb.info.nih.gov/nih-image/Default.html). […]

[2] = system: Daoy cells; experiment: Fibronectin-mediated cell migration assay (Boyden chamber, Chemicon QCM-FN)
Protocol: Fibronectin-mediated cell adhesion and migration were assessedusing the Chemicon QCM-FN Quantitative Cell Migration Assay (Chemicon International). Briefly, Daoy cells were grown in EMEM withh 10% FBS to 80% confluency and starved in serum-free EMEM for 24 h. Cells were washed twice with PBS, harvested them with trypsin/EDTA, and resuspended them in serum-free EMEM (1×10^6 cells/ml) with 5% BSA for 1 h. We subsequently incubated cells at 37 ° C. for 30 min with either no antibody, 0.6 ug/ml of neutralizing monoclonal anti-human PDGFRA antibody (R&D Systems), 0.6 ug/mi isotype-matched control antibody (R&D Systems), and or first pretreated them with 10 μM of MAP2K1/MAP2K2 inhibitor U0126 (Cell Signaling Technology) for 1 h. We based the concentration of antibody used on the ND50 for this lot of antibody for blocking 10 ng/ml of PDGFRA biologic activity on human WS1 cells (per R&D Systems product insert). We based the concentration of MAP2K1/MAP2K2 inhibitor U0126 used on the manufacturer?s recommendation. Following incubations, we resuspended the cells, and placed aliquots of 2×10^5 cells in 200 ul of serum-free EMEM into the upper fibronectin-(FN-) coated or BSA-coated (control) Boyden chambers (migration assay), or FN-coated wells (adhesion assay). The lower well contained 0, 1, 2, 4, 6, 8, or 10 ng/ml PDGFA (Chemicon) in 300 ll serum-free EMEM. We incubated the cells for 3 h at 37° C., stained them with cell stain solution (Chemicon), and subsequently washed them. We removed the medium, as well as non-adherent or non-migrating cells, from the upper side of the Boyden chamber membranes. We first visualized the cells by microscopy, and then subsequently eluted migrating or adherent cells with extraction solution (Chemicon) according to the manufacturer? s instructions. We aliquoted eluant (50 μl)×2 for each test sample into microtiter plates, and read the optical density (OD540-570) on a ThermoMax microplate reader (Molecular Devices). Using standardized migration rates of 130 cells per mm^2 equivalent to an OD550 of 0.270 (per Chemicon product insert), we obtained the final cell counts by averaging the two OD measurements (540 nm and 570 nm) after subtraction of the BSA control measurements (background), and determined significance (P value) using a t-test.
We tested the significance of PDGFRA in the metastatic potential of Daoy cells by fibronectin-dependent adhesion and migration assays.
To further test whether medulloblastoma migration is directly linked in part to downstream MAP2K1, MAP2K2 and MAPK1/3 activation, Daoy migration was tested in an identical fashion to that described above, except that cells were pretreated with U0126, a highly specific chemical inhibitor of MAP2K1 and MAP2K2 (FIG. 5b).

[3] = system: MAP2K2; experiment: Western blot, phospho-MAP2K2 to total ratio in Daoy cell lysates; details: PDGFA 10 ng/ml
Protocol: as §1, with “agitation.” for “agitation. We subsequently incubated the membrane with primary antibody (MAP2K1/2 antibody, phospho-MAP2K1/2 (Ser217/221) antibody, MAPK1/3 (p42/p44 MAPK) antibody, or phospho-MAPK1/3 (Thr202/Tyr204) antibody; Cell Signaling Technology) diluted 1:1000 in blocking buffer overnight at 4° C. We washed the membranes in wash buffer (1% BSA in TBS-T) 3 times (1× for 10 min and 2× for 5 min) and incubated them with anti-rabbit HRP-conjugated secondary antibody (Cell Signaling Technology) diluted 1:2000 in blocking buffer for 1 h with gentle agitation at room temperature. We subsequently washed membranes with gentle agitation 5 times with 1%BSA in TBS-T (1× for 10 min in, 4× for 5 min) and once in TBS-T for 5 min.”

[4] = system: Daoy cells; experiment: Fibronectin-mediated cell adhesion assay (Chemicon QCM-FN); details: increasing concentrations of PDGFA, no antibody
Protocol: Fibronectin-mediated cell adhesion and migration were assessedusing the Chemicon QCM-FN Quantitative Cell Migration Assay (Chemicon International). Briefly, Daoy cells were grown in EMEM withh 10% FBS to 80% confluency and starved in serum-free EMEM for 24 h. Cells were washed twice with PBS, harvested them with trypsin/EDTA, and resuspended them in serum-free EMEM (1×10^6 cells/ml) with 5% BSA for 1 h. We subsequently incubated cells at 37 ° C. for 30 min with either no antibody, 0.6 ug/ml of neutralizing monoclonal anti-human PDGFRA antibody (R&D Systems), 0.6 ug/mi isotype-matched control antibody (R&D Systems), and or first pretreated them with 10 μM of MAP2K1/MAP2K2 inhibitor U0126 (Cell Signaling Technology) for 1 h. […] We aliquoted eluant (50 μl)×2 for each test sample into microtiter plates, and read the optical density (OD540-570) on a ThermoMax microplate reader (Molecular Devices). Using standardized migration rates of 130 cells per mm^2 equivalent to an OD550 of 0.270 (per Chemicon product insert), we obtained the final cell counts by averaging the two OD measurements (540 nm and 570 nm) after subtraction of the BSA control measurements (background), and determined significance (P value) using a t-test. […]

[5] = system: MAP2K1; experiment: Western blot, phospho-MAP2K1 to total ratio in Daoy cell lysates; details: PDGFA 10 ng/ml
Protocol: as §1, with “agitation.” for “agitation. We subsequently incubated the membrane with primary antibody (MAP2K1/2 antibody, phospho-MAP2K1/2 (Ser217/221) antibody, MAPK1/3 (p42/p44 MAPK) antibody, or phospho-MAPK1/3 (Thr202/Tyr204) antibody; Cell Signaling Technology) diluted 1:1000 in blocking buffer overnight at 4° C. We washed the membranes in wash buffer (1% BSA in TBS-T) 3 times (1× for 10 min and 2× for 5 min) and incubated them with anti-rabbit HRP-conjugated secondary antibody (Cell Signaling Technology) diluted 1:2000 in blocking buffer for 1 h with gentle agitation at room temperature. We subsequently washed membranes with gentle agitation 5 times with 1%BSA in TBS-T (1× for 10 min in, 4× for 5 min) and once in TBS-T for 5 min.”

Row | Compound | decrease in baseline phosphorylation of MAPK1/3, fold ([1]; U0126 10 μM pretreatment 1 h, at start of migration assay) | effect on PDGFA-mediated MAPK1/3 phosphorylation ([1]; U0126 pre-treatment then PDGFA (FIG. 6b)) | decreased cell migration, % ([2]; U0126 10 μM pretreatment, no PDGFA) | migration, % of normal baseline migration ([2]; U0126 treated cells, 1 ng/ml PDGFA) | Daoy cell migration ([2]; U0126 treated cells, 1 ng/ml PDGFA, baseline 275, P<0.05) | migration, % of normal baseline migration ([2]; U0126 treated cells, 10 ng/ml PDGFA) | Daoy cell migration ([2]; U0126 treated cells, 10 ng/ml PDGFA, baseline 275, P<0.05) | Daoy cell migration ([2]; U0126 treated cells, no PDGFA, untreated 275, P<0.05) | increase in MAP2K2 phosphorylation, fold [3] | increase in MAPK1/3 phosphorylation, fold ([1]; PDGFA 10 ng/ml) | effect on adhesion of Daoy cells to fibronectin [4] | stimulation of Daoy migration across fibronectin-coated membranes, fold ([2]; 1 ng/ml PDGFA in lower well, vs no PDGFA) | Daoy cell migration ([2]; 1 ng/ml PDGFA in lower well, untreated 212) | Daoy cell migration ([2]; 4 ng/ml PDGFA in lower well, untreated 212) | increase in Daoy migration, fold ([2]; 10 ng/ml PDGFA in lower well, vs no PDGFA) | Daoy cell migration ([2]; 10 ng/ml PDGFA in lower well, untreated 212) | increase in MAP2K1 phosphorylation, fold [5]
1 | N#CC(=C(/N)Sc1ccccc1N)/C(C#N)=C(\N)Sc1ccccc1N [U0126] | 9 fold | blocks PDGFA-mediated MAPK1/3 phosphorylation | 50% | 57% | 158 cells/mm^2 | 65% | 188 cells/mm^2 | 139 cells/mm^2 |  |  |  |  |  |  |  |  | 
2 | PDGFA: PDGFRA ligand, growth factor (Chemicon) used to stimulate Daoy cells |  |  |  |  |  |  |  |  | 1.3 fold | 1.7 fold | did not affect the adhesion | approximately 3 fold | 640 cells/mm^2 | 819 cells/mm^2 | 4 fold | 847 cells/mm^2 | 1.6 fold
